Two compounds from patent US4797488A, “Psychotropic polycyclic imides” (American Home Products Corporation, priority 1987, dated 1989) can be followed below.

One assay concerns the target T1, D-2 dopamine receptor (Rattus norvegicus, UniProt P61169).
T1 construct: from tissue; host or cells: limbic brain tissue
In words: [3H]Spiroperidol binding inhibition, homogenized limbic brain tissue. The note with it: 1 μM. An excerpt:
The results of this testing with compounds representative of the invention whose production is exemplified,infra, are as follows: […]

For assay [1], the system named is conditioned avoidance responding. In words: Conditioned avoidance, shelf-jump response test. The class given is in vivo, male CD rats (Charles River). The note with it: ip, single dose, rat. The source says: (§1) The antipsychotic properties of the compounds of this invention were established by standard pharmacologically accepted procedures involving conditioned avoidance studies in which trained male CD rats (Charles River), 400-450 g. body weight are exposed to a fifteen second warning tone (conditioned stimulus) continued for an additional fifteen seconds accompanied by electric shock. The rat can avoid the electric shock by jumping to an exposed shelf (shelf-jump response). A response during the initial warning tone is considered an avoidance response, while a response during shock delivery is considered as escape response. The shelf-jump response test procedure follows that of Herman et al., Comm. in Psychopharm., 3, pp. 165-171 (1979). The compounds of this invention were tested at a single dose (40 mg./kg. i.p.) in this procedure and were rated relative to their inhibition of conditioned avoidance responding. A similar test procedure in which a lever press was substituted for a shelf-jump was used to establish the oral (p.o) activity of the test compounds. Orally active compounds were tested over a full dose range and the Avoidance Block activities reported as "AB50 's" (mg./kg.).

Assay [2] deals with T2, 5-HT1A serotonin receptor (Rattus norvegicus, UniProt P19327).
T2 construct: 44: 1685-1696, 1985; from tissue
T2 sequence (P19327 1-422): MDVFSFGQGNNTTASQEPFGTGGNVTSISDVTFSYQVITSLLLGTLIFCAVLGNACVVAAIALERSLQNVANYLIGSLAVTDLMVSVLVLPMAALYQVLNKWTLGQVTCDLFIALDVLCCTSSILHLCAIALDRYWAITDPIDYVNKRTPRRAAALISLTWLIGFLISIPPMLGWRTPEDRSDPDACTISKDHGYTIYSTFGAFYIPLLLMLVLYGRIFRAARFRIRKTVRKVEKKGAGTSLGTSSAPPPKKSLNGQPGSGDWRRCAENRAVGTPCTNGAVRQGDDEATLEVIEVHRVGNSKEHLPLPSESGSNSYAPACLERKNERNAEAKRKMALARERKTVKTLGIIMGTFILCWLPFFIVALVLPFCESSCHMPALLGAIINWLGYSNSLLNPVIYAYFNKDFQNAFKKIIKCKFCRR
In words: Inhibition of [3H] 8-OH DPAT binding. The note with it: 5-HT1A.
Description: 8-OH DPAT (dipropylaminotetralin) from the 5-HT1A serotonin receptor by the procedure of Hall et al., J. Neurochem.

The subject of assay [3] is apomorphine-induced stereotyped behavior and climbing. In words: Antagonism of apomorphine-induced stereotyped behavior and climbing. The class given is in vivo, CF-1 mice (Charles River). The note with it: Mus musculus, head: p.o. (text: i.p.), apomorphine 1 mg/kg s.c., mice.
Assay [4] deals with conditioned avoidance responding. The assay is described as follows: Conditioned avoidance, discrete trial (lever press), oral. The class given is in vivo, rat.
Description: as §1

Where [5] appears, read: read-out: Apomorphine antagonism ED50, climbing.
The mark [6] stands for this setting: read-out: Apomorphine antagonism ED50, stereotypy.

Like-named read-outs stand apart in the source and are kept apart here.

T1 sequence (P61169 whole entry): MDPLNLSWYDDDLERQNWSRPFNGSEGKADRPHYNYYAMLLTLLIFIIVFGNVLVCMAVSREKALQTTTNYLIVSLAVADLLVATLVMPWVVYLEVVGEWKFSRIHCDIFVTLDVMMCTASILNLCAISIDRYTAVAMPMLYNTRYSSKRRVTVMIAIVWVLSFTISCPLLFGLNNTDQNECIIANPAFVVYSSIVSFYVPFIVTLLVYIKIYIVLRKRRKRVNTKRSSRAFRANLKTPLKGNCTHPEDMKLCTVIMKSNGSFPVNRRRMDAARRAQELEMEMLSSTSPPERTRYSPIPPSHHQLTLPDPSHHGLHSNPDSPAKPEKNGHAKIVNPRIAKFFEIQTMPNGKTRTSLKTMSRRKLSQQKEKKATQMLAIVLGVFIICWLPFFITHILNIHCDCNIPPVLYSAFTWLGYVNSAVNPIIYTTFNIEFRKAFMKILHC

In the case of `O=C1C2CC(C(=O)N1CCCCN1CCN(c3cccc(C(F)(F)F)c3)CC1)C1CCCC21` (stereo not drawn) [Example 11, Hexahydro-3-[4-[4-(3-trifluoromethylphenyl)-1-piperazinyl]butyl]-1,5-methano-cyclopent[d]azepine-2,4(1H, 3H)-dione], testing at 1 µM on D-2 dopamine receptor gave an inhibition of 100%. This compound also gave an inhibition in vivo at 40 mg/kg in assay [1] above 20%. In assay [2], the Ki is 2 nM. The ED50 was 18.9 mg/kg in assay [3] (setting [5]); 42.4 mg/kg in assay [3] (setting [6]); 46.2 mg/kg in assay [4] (Rattus norvegicus, po, read-out: Conditioned avoidance, discrete trial AB50 (Avoidance Block)).

Consider `O=C1C2CC(C(=O)N1CCCCN1CCN(c3cnccn3)CC1)C1CCCC21` (stereo not drawn) [Example 3, Hexahydro-3-[4-[4-(2-pyrazinyl)-1-piperazinyl]butyl]-1,5-methanocyclopent[d]azepine-2,4(1H,3H)-dione], for which, at D-2 dopamine receptor, the inhibition at 1 µM turned out to be 23%. Besides, the inhibition in vivo at 40 mg/kg in assay [1] is around 80%. Also, the affinity in assay [2] corresponds to a Ki of 41 nM. Also, the values for the ED50 in assay [3] (setting [5]) and in assay [3] (setting [6]) were 4.91 mg/kg and 30.9 mg/kg, respectively. Besides, the “Conditioned avoidance, discrete trial AB50 (Avoidance Block)” value in assay [4] (p.o.) is “inactive”.
